Measurements reported in US12582664B2, “Treatment of fragile x syndrome with cannabidiol” (Harmony Biosciences Management, Inc., priority 2017, dated 2026).

Assays:
[1] = test system: children and adolescents with autism spectrum disorder; test: Aberrant Behavior Checklist-Community (ABC-C), BRIGHT study; design: species or system human; details: in vivo
Description: Another test that can be used by clinicians to measure the severity of symptoms of ASD is the Aberrant Behavior Checklist-Community test (ABC-C). The original Aberrant Behavior Checklist (ABC) was designed to assess behavioral concerns of adults within institutional settings. The original ABC was later adapted to address patients who are not institutionalized and specifically to address subjects diagnosed with ASD. The Aberrant Behavior Checklist-Community (ABC-C) is used by clinicians, doctors, and researchers to access certain behaviors in non-institutionalized patients with ASD. […]
An exploratory open-label safety, tolerability and efficacy study of Zygel™ ZYN002 transdermal gel to 37 children and adolescents with autism spectrum disorder was conducted. […] ASD was confirmed by Diagnostic and Statistical Manual of Mental Disorders, 5th edition (DSM-5) diagnostic criteria to assess the safety and efficacy of ZYN002 in treating ASD-related behaviors as measured by a variety of efficacy assessments. […]
Subjects were administered a 250 or 500 mg total daily dose, administered twice daily, of CBD in the form of ZYN002 CBD transdermal gel for 14 weeks. […] The trial evaluated multiple efficacy assessments, including the ABC-C, PRAS-ASD, Autism Parenting Stress Index, Autism Impact Measure (AIM), and Clinical Global Impression-Severity (CGI-S) and Improvement (CGI-I). […]

[2] = test system: patients with FXS and comorbid ASD; test: Pooled analysis of Week 12 change in ABC-C Irritability versus placebo; format: in vivo, human
Description: The data collected from the studies presented herein, and other similar studies were pooled together and analyzed. […] The subjects had moderate to severe symptoms of ASD (ADOS-2, comparison score greater than, or equal to, 5). The data presented in Table 2 is the Week 12 change in ABC-C Irritability of all patients. In previous studies (such as presented in Example 1, Table 1) the data was enriched by removing the non-completers from the analysis and only presenting data from the completers.

C=C(C)C1CCC(C)=CC1c1c(O)cc(CCCCC)cc1O (stereo not drawn) [CBD, 2-[3-methyl-6-(1-methylethenyl)-2-cyclohexen-1-yl]-5-pentyl-1,3-benzenediol]
improvement in irritability, PRAS score >37 compared to ≤37 [1]: twice as much improvement in irritability | improvement in irritability, ABC-CFXS Social Avoidance score >7 compared to ≤7 ([2]; ASD subjects): twice as much improvement in irritability | subjects showing an improvement in irritability, high social avoidance and/or anxiety scores compared to lesser scores ([2]; in vivo): about twice as many subjects
